These results are taken from PubChem BioAssay (NCI).

Among the test systems are 786-0 renal; A549 NSCLC; HCT-116 colon; HOP-62 NSCLC; HOP-92 NSCLC; HT29 colon; M14 melanoma; MOLT-4 leukemia; SF-539 CNS; NCI-H522 lung.
Experiment in all cases: growth of human tumour cells (NCI), 48 h

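These data come from cells grown in 96-well plates and exposed to compound for 48 hours at five concentrations. GI50 marks 50% less growth. TGI: concentration producing complete growth inhibition.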

Turning to `O=c1cnn2c(n1)sc1ccc3ccccc3c12`, the TGI in the experiment on 786-0 renal, in the experiment on A549 NSCLC, in the experiment on HCT-116 colon, with HOP-62 NSCLC, with HOP-92 NSCLC and with HT29 colon was over 100 µM throughout. In addition, the TGI in the experiment on M14 melanoma, with MOLT-4 leukemia and in the experiment with SF-539 CNS was over 100 µM in each case.

Regarding `Nc1ccc(/C=N/Nc2ccnc3c(N)cccc23)c2cccnc12`, the GI50 is 1.59 µM with 786-0 renal; 1.68 µM with A549 NSCLC; 0.401 µM in the experiment on HCT-116 colon; 1.81 µM with HOP-62 NSCLC; 1.58 µM in the experiment with HOP-92 NSCLC; 1.92 µM with HT29 colon. Moreover, the GI50 in the experiment with M14 melanoma is 1.87 µM; in the experiment on NCI-H522 lung, 1.84 µM; with SF-539 CNS, 1.74 µM. The TGI in the experiment with 786-0 renal turned out to be 3.04 µM; in the experiment on A549 NSCLC, 3.24 µM; in the experiment with HCT-116 colon, 1.85 µM; with HOP-62 NSCLC it was 3.53 µM; with HOP-92 NSCLC, 3.14 µM; in the experiment with HT29 colon it was 3.47 µM. The TGI in the experiment on M14 melanoma was 3.49 µM; in the experiment with NCI-H522 lung, 3.62 µM; in the experiment with SF-539 CNS, 3.15 µM.

Consider `COC(=O)C1=C(CO)C2C=CC1C2` (stereo unspecified), for which the TGI with 786-0 renal, with A549 NSCLC, in the experiment with HCT-116 colon, in the experiment with HOP-62 NSCLC, in the experiment with HT29 colon and with M14 melanoma was over 100 µM in each case. The TGI with MOLT-4 leukemia, in the experiment on NCI-H522 lung and with SF-539 CNS was over 100 µM each time.

With `Cc1ccc(Cl)c(NC(=O)C(=O)C(C(=O)c2ccncc2)C2OC(=O)c3ccccc32)c1` (stereo unspecified), the TGI in the experiment on 786-0 renal, in the experiment on A549 NSCLC, with HCT-116 colon, in the experiment with HOP-62 NSCLC, in the experiment with HOP-92 NSCLC and in the experiment with HT29 colon was over 100 µM in each case. Further, the TGI with M14 melanoma, in the experiment on NCI-H522 lung and in the experiment on SF-539 CNS was over 100 µM in each case.

With `COc1ccc(-c2nc(-c3nc4ccc(OC)cc4[nH]3)cc3c2[nH]c2ccccc23)cc1`, the GI50 with 786-0 renal is 4.62 µM; with A549 NSCLC, 1.92 µM; in the experiment with HCT-116 colon, 2.48 µM; with HOP-62 NSCLC, 4.24 µM; with HT29 colon, 3.46 µM; with M14 melanoma it was 3.34 µM. Also, the GI50 in the experiment on MOLT-4 leukemia is 1.98 µM; in the experiment with NCI-H522 lung, 2.7 µM; in the experiment on SF-539 CNS it was 9.29 µM. Also, the TGI in the experiment with 786-0 renal, with A549 NSCLC, in the experiment on HCT-116 colon, in the experiment with HOP-62 NSCLC, in the experiment on HT29 colon and with M14 melanoma was over 100 µM each time. For the same molecule, the TGI in the experiment with MOLT-4 leukemia, in the experiment on NCI-H522 lung and in the experiment on SF-539 CNS was over 100 µM throughout.

For `O=c1c2ccccc2c2nc3ccccc3nc2n1C1CCCCC1`, the TGI in the experiment on 786-0 renal, in the experiment with A549 NSCLC, with HCT-116 colon, with HT29 colon, in the experiment with MOLT-4 leukemia and with NCI-H522 lung was over 100 µM each time. Also, in the experiment with SF-539 CNS, the TGI was over 100 µM.

For the molecule `COc1cc(-n2cc(-c3ccc(Cl)cc3)[nH]c2=O)cc(OC)c1OC`, the GI50 in the experiment with 786-0 renal is 15.2 µM; with A549 NSCLC it was 34.6 µM; in the experiment with HCT-116 colon, 35.4 µM; with HOP-62 NSCLC, 30.8 µM; in the experiment on HT29 colon, 43.8 µM; in the experiment on M14 melanoma, 94.1 µM. The GI50 in the experiment with MOLT-4 leukemia is over 100 µM; with NCI-H522 lung, 19.9 µM; in the experiment on SF-539 CNS, 23.8 µM. In addition, the TGI is 35.3 µM in the experiment on 786-0 renal; over 100 µM in the experiment on A549 NSCLC; over 100 µM in the experiment on HCT-116 colon; 78.8 µM in the experiment with HOP-62 NSCLC; over 100 µM in the experiment on HT29 colon; over 100 µM in the experiment with M14 melanoma. The TGI in the experiment with MOLT-4 leukemia is over 100 µM; with NCI-H522 lung, 54 µM; with SF-539 CNS it was 49.2 µM.

On to `Nc1nc2nc[nH]c2c(=O)[nH]1`, for which the TGI in the experiment on 786-0 renal, in the experiment on A549 NSCLC, in the experiment with HCT-116 colon, with HOP-62 NSCLC, in the experiment on HOP-92 NSCLC and with HT29 colon was over 100 µM in each case. Further, the TGI in the experiment with M14 melanoma, with NCI-H522 lung and in the experiment on SF-539 CNS was over 100 µM each time.

Take `O=C(Nc1nc2ncn(CC(COc3ccccc3)OC(=O)c3ccccc3)c2c(=O)[nH]1)c1ccccc1` (stereo unspecified): the TGI with 786-0 renal, in the experiment on A549 NSCLC, in the experiment on HCT-116 colon, with HOP-62 NSCLC, in the experiment on HT29 colon and with M14 melanoma was over 100 µM throughout. In addition, the TGI in the experiment on MOLT-4 leukemia, in the experiment on NCI-H522 lung and in the experiment on SF-539 CNS was over 100 µM in each case.

As to `CC(C)(C)C(=O)C1CC(=O)c2ccccc2C1=O` (stereo unspecified), the TGI with 786-0 renal was over 100 µM; with A549 NSCLC, over 100 µM; in the experiment on HCT-116 colon, 46.2 µM; in the experiment on HOP-62 NSCLC it was 62.9 µM; with HOP-92 NSCLC it was 66.5 µM; in the experiment with M14 melanoma it was over 100 µM. Besides, the TGI with MOLT-4 leukemia is 75.9 µM; with NCI-H522 lung, 65.8 µM; with SF-539 CNS, over 100 µM.

`O=C1CCC2(CC1)SCCCS2`: the TGI in the experiment on 786-0 renal, in the experiment with A549 NSCLC, in the experiment with HOP-62 NSCLC, in the experiment on HOP-92 NSCLC, in the experiment with HT29 colon and in the experiment with M14 melanoma was over 100 µM in each case. In the experiment on NCI-H522 lung, this molecule had a TGI of over 100 µM.

`CC1OC(OCC2COC(O)(Oc3c(-c4ccc(O)c(O)c4)oc4cc(O)cc(O)c4c3=O)C(O)C2O)C(O)C(O)C1O` (stereo unspecified): the TGI in the experiment with 786-0 renal, in the experiment with A549 NSCLC, in the experiment on HCT-116 colon, in the experiment on HOP-62 NSCLC, in the experiment with HOP-92 NSCLC and in the experiment with HT29 colon was over 100 µM each time. The TGI with M14 melanoma, in the experiment on MOLT-4 leukemia and in the experiment with SF-539 CNS was over 100 µM in each case.
